Read-outs that look alike come from different tables or passages of the source.
Tests used:
[1] = Solubility of the deblocking agent in the deblocking composition; format: physicochemical; conditions: in words
Method: (§1) CDP was formulated with a number of different buffers at different pH and various different amines as solubility enhancers. 47 formulations were made and tested. In general, CDP was dissolved in water and loaded onto Dowex 50™ cation exchange resin, and incubated for a few minutes. The resin was eluted with an aqueous solution of the amine solubility enhancer. The resulting solution was either used directly in Octet/CE assays or dried form a solid that was very soluble in water.

[2] = test system: library of polynucleotides; assay: Sequencing-by-binding run, On/Off signal intensity by cycle; format: biochemical; conditions: after 150 cycles, CDP versus SOP (sodium NO2)
Method: A library of polynucleotides were sequenced in a sequencing-by-binding workflow, and On/Off signal intensity was measured in each sequencing cycle, as described in US Patent Pub. No. 2020/0032317, the content of which is incorporate herein. Specifically, ‘on’ signal intensity (corresponds to the binding of the cognate nucleotide) and ‘off’ signal intensity (corresponds to the binding of the non-cognate nucleotide) in each SBB cycle. By using [NaNO2] 2 M and considering pH 5.2 and based on Henderson-Hasselbalch equation, we calculated that 18 mM of the nitrous acid exists in CLV (Cleave) reagent. Although, this cleave formulation is efficient in converting dNTP-RT to dNTP on the sequencing strand, however, it may have one or more disadvantages, such as instability, corrosivity, and/or DNA damage. Regarding instability: nitrous acid in our current CLV reagent degrades and produces nitrogen oxide gas (NOx) which weaken strength of the deblocking reagent. Nitrous acid is very corrosive and has […] with plastics consumables and instruments.
Y axis is on/off intensities. […] A library of polynucleotides were sequenced in a sequencing-by-binding workflow, and On/Off signal intensity was measured in each sequencing cycle, as described in US Patent Pub. […]

[3] = test system: NO bond at the 3′ position of a polynucleotide; assay: Octet/CE cyclic extension assay (SBB extension cycles, extended primer length read by capillary electrophoresis); format: biochemical
From the text: The polynucleotides were Cy3-primers hybridized to biotinylated template DNA which were in turn bound to streptavidin coated tips of the Octet system. The Octet system move a set of 8 tips between the wells of a heated 96-well plate, for a set number of SBB extension cycles. Each cycle included an IMG step under conditions at which fluorescent nucleotides of ternary complexes could be imaged, an RTN step in which amineoxy terminated nucleotides were incorporated at the 3′ end of the primer by a polymerase, a wash step that removes excess nucleotides, and a CLV step that exposes the amineoxy terminated extended primer to a deblocking agent or candidate. The length of extended polynucleotides were then detected by capillary electrophoresis (CE), as described in US Patent Pub. No. 2019/0241945, the content of which is incorporated herein.
Polynucleotide sequence was synthesized using the Octet/CE method where non-extendable polynucleotides having a 3′ amineoxy group were used to reversibly stop extension, as shown in the workflow scheme of FIG. 1A.
as §1
A number of other carbonyl compounds were test for their ability to cleave the NO bond at the 3′ position of a polynucleotide, according to the assay design shown in FIG. 1A.
Deblocking candidates were tested at various concentrations, generally between 1 and 100 mM (e.g., at 1 mM, 2 mM, 4 mM, 8 mM, 20 mM, 35 mM, 40 mM, 70 mM, and/or 100 mM for different candidates), in acetate (1 M) and tris (0.2 M) buffers, and buffered at pH 6 or 8, with and without amine counterion.

[4] = compared to SOP cleave in sodium acetate buffer, in words

| Molecule | Extension at 40 C. in 37 cycles Octet CE assay [3] | cleavage of NO bond (deblocking, extension in multiple cycles) ([3]; in words) | Extension at 52 C. in 37 cycles octet/Ce assay [3] | other results |
| --- | --- | --- | --- | --- |
| O=C(P(=O)(O)O)P(=O)(O)O [CDP, Carbonyl diphosphonate] | 37 bp Extension | deblocking | – | solubility issue [1]: slight solubility issue; signal to noise ratio [2]: comparable; cleavage of NO bond (deblocking, extension in multiple cycles) [3]: comparable to NaNO2; negative phasing ([3]; 37 cycles of extension): 0.21%; positive phasing ([3]; 37 cycles of extension): 0.17%; negative dephasing on electropherogram [3, 4]: higher negative dephasing; positive dephasing on electropherogram [3, 4]: higher positive dephasing; dephasing of product ([3]; compared to SOP, in words): minimal dephasing |
| O=Cc1ccc(S(=O)(=O)[O-])cc1S(=O)(=O)[O-].[Na+].[Na+] [Di sodium 4-formylbenzene-1,3-disolfonate] | 3 bp Extension | deblocking | 3 bp Extension | – |
| CCC(=O)CP(=O)([O-])[O-].[Na+].[Na+] [Di sodium (2-oxobutyl)phosphonate] | 4 bp Extension | deblocking | 4 bp Extension | – |
| CC(=O)P(=O)([O-])[O-].[Na+].[Na+] [Di sodium acetylphosphonate] | 12 bp Extension | deblocking | 3 bp Extension | – |
| CNC(=O)NC [Dimethyl urea, reference compound] | No Extension | – | – | – |
| CC(=O)OP(=O)([O-])[O-].[K+].[Li+] [LiK Aceyl Phosphate, reference compound] | No Extension | – | – | – |
| CS(=O)(=O)CC(=O)c1ccccc1 [Methyl sulfonyl acetophenone] | 5 bp Extension | deblocking | 5 bp Extension | – |
| O=N[O-].[Na+] [NaNO2, sodium nitrite, reference compound] | – | – | – | negative phasing [3]: 0.04%; positive phasing [3]: 0.05% |
| COP(=O)([O-])C(C)=O.[Na+] [methyl acetylphosphonate, methyl acetylphosphonate CH3—CO—PO(Ome)—O^− Na^+, reference compound] | No Extension | – | – | – |
| Hydroxycarbamide [reference compound] | No extension | – | – | – |
